According to ChEMBL document CHEMBL1201862, “PubChem BioAssay data set” (2004):
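48-hour exposure; five concentrations; linearly interpolated endpoints. The concentration for 50% growth inhibition is given as GI50.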 The source made the active and inactive calls. No stated cut-off is given here; in the data, active = GI50 up to about 1.1 µM and inactive = higher.

Experiments:
Test in all cases: inhibition of tumour cell growth, NCI panel, 48 h
[1] = system: SNB-19
[2] = system: DLD-1
[3] = system: HT-29
[4] = system: SF-268
[5] = system: NCI-H460
[6] = system: SNB-75
[7] = system: MOLT-4
[8] = system: UACC-257
[9] = system: COLO 205
[10] = system: DMS-114
[11] = system: HL-60
[12] = system: CAKI-1
[13] = system: OVCAR-8
[14] = system: HOP-18
[15] = system: SK-MEL-28
[16] = system: SK-MEL-2
[17] = system: IGROV-1
[18] = system: EKVX
[19] = system: A549
[20] = system: HCC 2998
[21] = system: SW-620
[22] = system: RXF 393
[23] = system: NCI-H23
[24] = system: UACC-62
[25] = system: HOP-62
[26] = system: XF498
[27] = system: KM12
[28] = system: OVCAR-3
[29] = system: UO-31
[30] = system: A498
[31] = system: HOP-92
[32] = system: K562
[33] = system: RPMI-8226
[34] = system: HCT-116
[35] = system: DMS-273
[36] = system: LOX IMVI
[37] = system: NCI-H226
[38] = system: MCF7
[39] = system: SNB-78
[40] = system: M19-MEL
[41] = system: U-251
[42] = system: SK-OV-3
[43] = system: CCRF-CEM
[44] = system: OVCAR-4
[45] = system: NCI/ADR-RES
[46] = system: SF-295
[47] = system: SF-539
[48] = system: SK-MEL-5
[49] = system: Malme-3M
[50] = system: KM-20L2
[51] = system: HCT-15
[52] = system: SN12C
[53] = system: NCI-H522
[54] = system: OVCAR-5
[55] = system: M14
[56] = system: TK-10
[57] = system: LXFL 529
[58] = system: 786-0
[59] = system: ACHN
[60] = system: SR

Measured: GI50

N/C(=N\O)N/N=C\c1ccc(O)c(O)c1O
inactive: [1] > 51.9 µM | [2] 23.8 µM | [3] 11.1 µM | [4] 60.1 µM | [5] 17.1 µM | [6] 17.3 µM | [7] 24.9 µM | [8] 63.7 µM | [9] 12.9 µM | [10] 21.2 µM | [11] 17.2 µM | [12] 29.4 µM | [13] 30.4 µM | [14] > 100 µM | [15] > 100 µM | [16] > 46 µM | [17] 57 µM | [18] > 78.5 µM | [19] > 58.7 µM | [20] 36.9 µM | [21] 19.7 µM | [22] 18.9 µM | [23] 24.4 µM | [24] 17.3 µM | [25] > 41.1 µM | [26] > 100 µM | [27] 26.7 µM | [28] 22.7 µM | [29] > 100 µM | [30] > 30.8 µM | [31] > 55.3 µM | [32] 17.8 µM | [33] 41.5 µM | [34] 27.5 µM | [35] 13.6 µM | [36] 16.3 µM | [37] 39.1 µM | [38] 16.7 µM | [39] > 51.3 µM | [40] 20.1 µM | [41] > 52.8 µM | [42] > 100 µM | [43] 17.3 µM | [44] 10.9 µM | [45] 19.5 µM | [46] 12.2 µM | [47] > 100 µM | [48] 19.8 µM | [49] > 100 µM | [50] 26.7 µM | [52] 19.5 µM | [53] 24.1 µM | [54] > 48.1 µM
19.2 µM: [51]

Nc1ncnc2c1ncn2C1CC(OCc2ccccc2[N+](=O)[O-])C(CO)O1 (stereo not drawn)
inactive: [1] 46.1 µM | [2] 23.7 µM | [3] 17.5 µM | [4] 28.2 µM | [55] 15.6 µM | [5] 20.1 µM | [7] 18.4 µM | [8] 18.5 µM | [9] 9.2 µM | [10] 16.4 µM | [11] 12.7 µM | [13] 23.8 µM | [14] 26.6 µM | [15] 23.8 µM | [16] 22.4 µM | [17] 28.9 µM | [18] 33 µM | [19] 21.7 µM | [20] 28.8 µM | [21] 36 µM | [22] 5.38 µM | [23] 23 µM | [25] 24.3 µM | [56] 30.8 µM | [26] 42.2 µM | [27] 20 µM | [28] 30.1 µM | [29] 17 µM | [30] > 50 µM | [31] 21.4 µM | [32] 16.1 µM | [57] 13.6 µM | [33] 14.9 µM | [34] 17.4 µM | [35] 18.4 µM | [36] 20.9 µM | [37] 11.8 µM | [39] 18.2 µM | [40] 16.1 µM | [41] 24.2 µM | [42] 21.7 µM | [43] 16.7 µM | [44] 17.4 µM | [58] 43.4 µM | [46] 15.6 µM | [59] 13.3 µM | [47] 44.5 µM | [49] 20 µM | [50] 22.2 µM | [52] 24.3 µM | [60] 10.8 µM | [53] 13.7 µM | [54] > 50 µM
21.8 µM: [51]
